# Patent publication US20180153872A1, “HETEROARYL CARBONITRILES FOR THE TREATMENT OF DISEASE” (OPKO Health, Inc., priority 2015, published 2018)
# Read-outs that look alike come from different tables or passages of the source.
# Assays:
# [1] = Pharmacokinetics/toxicokinetics and excretion in rats; type: in vivo, rat; settings: for plasma concentration-time profile: single oral dose
# Source text: (§1) Urinary excretion was also substantial (approximately 20%).
# NK1 receptor [2] = target: T1, NK1 receptor (Canis lupus familiaris, UniProt Q5DUB3); assay: Substance P-elicited blood pressure and minute volume changes in dogs; type: in vivo; settings: dog, 0.3 mg/kg oral
# T1 construct: from tissue; host or cells: living dog
# T1 sequence (Q5DUB3 whole entry): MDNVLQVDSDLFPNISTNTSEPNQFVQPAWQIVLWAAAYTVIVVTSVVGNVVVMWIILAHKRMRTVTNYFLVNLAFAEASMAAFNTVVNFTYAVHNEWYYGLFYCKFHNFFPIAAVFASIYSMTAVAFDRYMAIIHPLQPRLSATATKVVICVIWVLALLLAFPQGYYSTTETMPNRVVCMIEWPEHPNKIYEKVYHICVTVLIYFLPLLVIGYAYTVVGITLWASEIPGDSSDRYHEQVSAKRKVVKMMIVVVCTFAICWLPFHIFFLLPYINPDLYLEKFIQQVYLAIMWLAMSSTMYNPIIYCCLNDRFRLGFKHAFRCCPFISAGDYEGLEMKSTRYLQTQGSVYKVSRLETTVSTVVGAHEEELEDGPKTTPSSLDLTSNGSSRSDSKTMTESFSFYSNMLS
# log D, octanol/water = type: physicochemical; settings: pH 7.4, octanol/water system
# Source text: (§2) The present invention comprises a compound having activity in mammalian cough models and is thus useful in the treatment of cough in mammals, including humans, after oral administration. The present invention comprises an oral formulation of a compound of formula I and pharmaceutically acceptable excipients selected from the group consisting of diluents, binders, disintegrants, wetting agents and lubricants. In a preferred embodiment the pharmaceutical composition comprises a compound of formula I (or IIa-IIc) or II and lactose monohydrate, microcrystalline cellulose, povidone, crospovidone, poloxamer 188 and magnesium stearate. The preferred oral form is a capsule. The amount of active ingredient in the capsule or oral dosage form may range from 1 mg to 250 mgs with a preferred range of 10-150 mg with a more preferred range of 20-100 mg per day in humans. The present invention also relates to an NK-1 antagonist (e.g., Formula II) having a half-life of approximately 10-13 days. The present invention further relates to a method of treating pruritus comprising administering a pharmaceutically effective amount of a compound of formula II having a half-life of 10-13 days to a patient in need of treatment thereof. […] The measured onset melting temperature as measured by differential scanning calorimetry (DSC) is 168.9. […]
# Solubility = type: physicochemical; settings: pH 7, aqueous buffer
# Source text: as §2
# NK1 receptor [3] = target: NK1 receptor (Meriones unguiculatus, UniProt Q5DUB1); assay: Gerbil foot thumping (in vivo pharmacodynamic model of NK1 receptor activity); design: from tissue; host or cells: living gerbil (central NK1 receptors)
# Chain of NK1 receptor (Meriones unguiculatus, UniProt Q5DUB1) (Q5DUB1 whole entry): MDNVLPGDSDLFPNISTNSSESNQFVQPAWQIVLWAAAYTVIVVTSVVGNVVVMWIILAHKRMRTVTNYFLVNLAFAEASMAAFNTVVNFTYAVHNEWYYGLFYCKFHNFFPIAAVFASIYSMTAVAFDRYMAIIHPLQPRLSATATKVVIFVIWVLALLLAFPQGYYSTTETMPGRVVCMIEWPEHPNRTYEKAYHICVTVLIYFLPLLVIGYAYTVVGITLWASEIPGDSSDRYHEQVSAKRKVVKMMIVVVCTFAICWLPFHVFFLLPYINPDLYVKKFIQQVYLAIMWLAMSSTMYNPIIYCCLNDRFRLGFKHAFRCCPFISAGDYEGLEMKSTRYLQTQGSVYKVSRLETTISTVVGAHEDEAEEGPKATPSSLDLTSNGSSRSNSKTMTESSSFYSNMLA
# Source text: Intracerebroventricular administration of NK1 receptor agonists to gerbils induces vigorous thumping in the hind feet. This response can be blocked by NK1 receptor antagonists.
# [4] = Brain penetration, gerbils; type: in vivo, gerbil
# Protocol: as §1
# The extent of brain penetration by SCH 900978 was evaluated after oral administration of SCH 900978 amorphous hydrochloride to female gerbils (0.1 mg/kg), male Sprague Dawley rats (5 mg/kg), and male guinea pigs (0.3 mg/kg).
# [5] = Rising single-dose safety, tolerability and pharmacokinetics study in healthy human volunteers; type: in vivo
# Protocol: A randomized, placebo-controlled, third party blind (within dose level), rising, single-dose escalation study to evaluate the safety, tolerability and pharmacokinetics of SCH900978 in healthy human volunteers was conducted and completed. […] Six subjects received placebo. […] Food had no effect on the oral bioavailability of SCH900978. […] Tmax occurred within 0-4 hours at each dosage strength. Table 2 below provides the mean SCH900978 pharmacokinetic parameters following administration of a single oral dose of 25 mgs of SCH900978 capsule or solution to healthy volunteers.
# Table 3 below provides the mean SCH900978 pharmacokinetic parameters following administration of a single oral dose of 50 mgs of SCH900978 to healthy volunteers under fasted and fed conditions.
# in vivo = assay: in vivo
# Protocol: A series of in vitro and in vivo studies examined the effects of SCH900978 on cardiovascular, respiratory and CNS functions. No adverse effects were observed. The NOAEL was ≥25 mg/kg in male rats, ≥12.5 mg/kg in female rats and ≥10 mg/kg in male cynomolgus monkeys; each dose was the highest dose tested.
# Plasma protein binding = type: in vitro ADME; settings: all mammals tested and human
# Source text: as §1
# [6] = 25 mg solution, single oral dose, n = 5
# [7] = 50 mg fasted, single oral dose, n = 6
# [8] = 50 mg fed, single oral dose, n = 6
smiles,measurement,setting,value
"C[C@@H](OC[C@@]1(c2ccccc2)CC[C@](C#N)(n2cn[nH]c2=O)CN1)c1cc(C(F)(F)F)cc(C(F)(F)F)c1 [Compound 42, (3 S,6S)-6-({(1R)-1-[3,5-bis(trifluoromethyl)phenyl]ethoxy}methyl)-3-(5-oxo-1,5dihydro-4H-1,2,4-triazol-4-yl)-6-phenylpiperidine-3-carbonitrile]",systemic exposure after repeated administration,"[1]; female and male rats, doses >=25 mg/kg, most likely CYP enzyme induction",decreased following repeated administration
same,plasma concentrations over 24 hours after 29th dose versus first dose,"[1]; female rats 0.5 to 12.5 mg/kg, male rats 1 to 5 mg/kg",greater
same,"systemic exposure (AUC) versus dose, single dose","[1]; male rats 0.6 to 500 mg/kg, female rats 0.5 to 250 mg/kg, no further increase at the highest doses",increased with increasing dose
same,"exposure, effect of sex",[1]; rats,higher in female rats than in male rats
same,exposure versus dose,"[1]; rats, once daily oral doses for one month",generally increased as the dose increased
same,major elimination pathway,"[1]; rats, oral administration",excretion into the feces
same,plasma concentration-time profile,"[1]; rats, listed as SCH 900978",extended absorption of SCH900978 with a long t1/2
same,plasma concentration-time profile,"[1]; rats, listed as SCH900978",extended absorption of the drug and a long apparent terminal elimination phase half-life
same,inhibition of substance P-elicited increase in minute volume,NK1 receptor [2],maximally inhibited
same,inhibition of substance P-elicited reduction in blood pressure,NK1 receptor [2],maximally inhibited
same,logD,"log D, octanol/water",4.5
same,solubility,Solubility,1.8 µg/mL
same,duration of significant inhibition of NK1 agonist-induced foot thumping,NK1 receptor [3]; 0.3 mg/kg oral dose,up to 48 hours
same,"ED90, effective dose for 90% inhibition of foot thumping","NK1 receptor [3]; oral, six hours before testing, GR 73632-induced",0.2 mg/kg
same,crossing of the blood brain barrier,[4],readily crossed the blood brain barrier
same,Tf Mean/% CV,"[5]; 25 mg capsule, single oral dose, n = 5",312^b/0^ hr
same,Cmax Mean/% CV,"[5]; 25 mg capsule, single oral dose, n = 6",213/27
same,AUC(tf) Mean/% CV,[5]; [6],29900/22
same,Tf Mean/% CV,[5]; [6],312/0
same,Cmax Mean/% CV,"[5]; 25 mg solution, single oral dose, n = 5, adjusted for carryover",301/21
same,AUC(l) Mean/% CV,[5]; [7],88700/23
same,AUC(tf) Mean/% CV,[5]; [7],59700/24
same,Cmax Mean/% CV,[5]; [7],388/32
same,T1/2 Mean/% CV,[5]; [7],309/32
same,Tf Mean/% CV,[5]; [7],504/0
same,AUC(tf) Mean/% CV,[5]; [8],69000/19
same,Tf Mean/% CV,[5]; [8],504/0
same,Cmax Mean/% CV,"[5]; 50 mg fed, single oral dose, n = 6, adjusted for carryover",366/23
same,"bioavailability, solution versus capsule oral formulations",[5]; healthy volunteers,comparable
same,effect of food on oral bioavailability,[5]; healthy volunteers,no effect
same,safety and tolerability,"[5]; healthy volunteers, oral doses up to 50 mg",safe and well tolerated
same,absorption and elimination,"[5]; healthy volunteers, single oral doses 10, 25, 50 mg",rapidly absorbed and slowly eliminated
same,AUC,"[5]; human, plasma, oral, 10 mg to 200 mg dose, after a single dose, read-out: AUC plasma blood level",19000 to 352000 ng·h/mL
same,half-life,"[5]; human, plasma, oral, human, read-out: t1/2 (half-life)",10 to 13 days
same,Cmax,"[5]; human, plasma, oral, 10 mg to 200 mg dosage range, based on values from volunteers given 10, 25 and 50 mg, read-out: Cmax (either calculated or estimated)",103 to 1480 ng/mL
same,Tmax,"[5]; human, plasma, oral, each dosage strength 10, 25, 50 mg",0 to 0.167 days
same,AUC,"[5]; human, plasma, po, 25 mg, 25 mg capsule, single oral dose, n = 4, read-out: AUC(l) Mean/% CV",42900 ng·h/mL
same,half-life,"[5]; human, plasma, po, 25 mg, 25 mg capsule, single oral dose, n = 4, read-out: T1/2 Mean/% CV (converted)",9.92 days
same,AUC,"[5]; human, plasma, po, 25 mg, 25 mg capsule, single oral dose, n = 5, read-out: AUC(tf) Mean/% CV",25700 ng·h/mL
same,AUC,"[5]; human, plasma, po, 25 mg, 25 mg solution, single oral dose, n = 4, read-out: AUC(l) Mean/% CV",52600 ng·h/mL
same,half-life,"[5]; human, plasma, po, 25 mg, 25 mg solution, single oral dose, n = 4, read-out: T1/2 Mean/% CV (converted)",10.5 days
same,AUC,"[5]; human, plasma, po, 50 mg, 50 mg fed, single oral dose, n = 4, read-out: AUC(l) Mean/% CV",97000 ng·h/mL
same,half-life,"[5]; human, plasma, po, 50 mg, 50 mg fed, single oral dose, n = 4, read-out: T1/2 Mean/% CV (converted)",13.2 days
same,exposure (Cmax and AUC) versus dose,"[5]; single oral doses 10, 25, 50 mg",dose related
same,NOAEL,"in vivo; female, rat",≥ 12.5 mg/kg
same,NOAEL,"in vivo; male, cynomolgus monkey",≥ 10 mg/kg
same,NOAEL,"in vivo; male, rat",≥ 25 mg/kg
same,protein bound,Plasma protein binding,≥ 99.6%
